# Results taken from PubChem BioAssay (NCI).
# Where “and” joins values, the source holds several entries; their conditions need not be identical. Equal entries are not always repeated.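 Step 1: Grow cells in 96-well plates. Step 2: Expose to compound for 48 hours at 5 concentrations. Step 3: Interpolate endpoints linearly; if unreached, use highest concentration. At the GI50, growth is halved. TGI denotes the concentration required for complete inhibition of growth.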
# Experiments:
# Experiment in all cases: NCI tumour cell line growth inhibition, 48 h
# 786-0 renal = tested on: 786-0 renal
# UACC-62 melanoma = tested on: UACC-62 melanoma
# U251 CNS = tested on: U251 CNS
# MALME-3M melanoma = tested on: MALME-3M melanoma
# M14 melanoma = tested on: M14 melanoma
# CCRF-CEM leukemia = tested on: CCRF-CEM leukemia
# SK-OV-3 ovarian = tested on: SK-OV-3 ovarian
# OVCAR-4 ovarian = tested on: OVCAR-4 ovarian
# MDA-MB-435 = tested on: MDA-MB-435
# MDA-MB-231 breast = tested on: MDA-MB-231 breast
# SN12C renal = tested on: SN12C renal
# SF-539 CNS = tested on: SF-539 CNS
# SNB-75 CNS = tested on: SNB-75 CNS
# SNB-19 CNS = tested on: SNB-19 CNS
# SF-295 CNS = tested on: SF-295 CNS
# ACHN renal = tested on: ACHN renal
# HCC-2998 colon = tested on: HCC-2998 colon
# COLO 205 colon = tested on: COLO 205 colon
# A498 renal = tested on: A498 renal
# SW-620 colon = tested on: SW-620 colon
# SF-268 CNS = tested on: SF-268 CNS
# OVCAR-5 ovarian = tested on: OVCAR-5 ovarian
# LOX IMVI melanoma = tested on: LOX IMVI melanoma
# HT29 colon = tested on: HT29 colon
# NCI-H226 lung = tested on: NCI-H226 lung
# SR leukemia = tested on: SR leukemia
# DU-145 prostate = tested on: DU-145 prostate
# TK-10 renal = tested on: TK-10 renal
# IGROV1 ovarian = tested on: IGROV1 ovarian
smiles,measurement,setting,value
C=CC(=O)N1CCC(Oc2cc3c(Nc4ccc(Cl)c(Cl)c4F)ncnc3cc2OC)CC1,GI50,786-0 renal,1.96 µM and 1.63 µM
same,TGI,786-0 renal,17.7 µM and > 10 µM
same,GI50,UACC-62 melanoma,3.25 µM and 2.15 µM
same,TGI,UACC-62 melanoma,18.7 µM and > 10 µM
same,GI50,U251 CNS,7.13 µM and 3.33 µM
same,TGI,U251 CNS,27 µM and > 10 µM
same,GI50,MALME-3M melanoma,7.36 µM and > 5.35 µM
same,TGI,MALME-3M melanoma,23.9 µM and > 10 µM
same,GI50,M14 melanoma,4 µM and 3.1 µM
same,TGI,M14 melanoma,20.2 µM and > 10 µM
same,GI50,CCRF-CEM leukemia,2.33 µM and 3.37 µM
same,TGI,CCRF-CEM leukemia,55.9 µM and > 10 µM
same,GI50,SK-OV-3 ovarian,< 0.001 µM
same,GI50,OVCAR-4 ovarian,2.65 µM and 2.56 µM
same,TGI,OVCAR-4 ovarian,31.5 µM and > 10 µM
same,GI50,MDA-MB-435,2.23 µM and 1.8 µM
same,TGI,MDA-MB-435,8.3 µM and 4.7 µM
same,GI50,MDA-MB-231 breast,3.79 µM and 1.65 µM
same,TGI,MDA-MB-231 breast,23.8 µM and > 9.63 µM
same,GI50,SN12C renal,2.88 µM and 1.79 µM
same,TGI,SN12C renal,25.2 µM and > 10 µM
same,GI50,SF-539 CNS,1.57 µM and 1.78 µM
same,TGI,SF-539 CNS,10 µM and 8.4 µM
same,GI50,SNB-75 CNS,1.07 µM and 0.48 µM
same,TGI,SNB-75 CNS,13.7 µM and 4.4 µM
same,GI50,SNB-19 CNS,8.97 µM and 6.52 µM
same,TGI,SNB-19 CNS,23.9 µM and > 10 µM
same,GI50,SF-295 CNS,3.78 µM and 2.21 µM
same,TGI,SF-295 CNS,17.3 µM and > 10 µM
same,GI50,ACHN renal,< 0.001 µM
same,TGI,ACHN renal,14.9 µM and > 10 µM
same,GI50,HCC-2998 colon,7.61 µM and 2.52 µM
same,TGI,HCC-2998 colon,24.8 µM and > 10 µM
same,GI50,COLO 205 colon,4.26 µM and 3.52 µM
same,TGI,COLO 205 colon,17.4 µM and > 10 µM
same,GI50,A498 renal,0.365 µM and 0.179 µM
same,TGI,A498 renal,1.92 µM and 0.834 µM
same,GI50,SW-620 colon,10.3 µM and 4.24 µM
same,TGI,SW-620 colon,34.2 µM and > 10 µM
same,GI50,SF-268 CNS,0.743 µM and 0.466 µM
same,TGI,SF-268 CNS,19.4 µM and > 7.14 µM
same,GI50,OVCAR-5 ovarian,4.93 µM and 3.03 µM
same,TGI,OVCAR-5 ovarian,39 µM and > 10 µM
same,GI50,LOX IMVI melanoma,1.55 µM and 1.2 µM
same,TGI,LOX IMVI melanoma,5.73 µM and 2.84 µM
same,GI50,HT29 colon,1.71 µM and 1.52 µM
same,TGI,HT29 colon,13.7 µM and > 9.34 µM
same,GI50,NCI-H226 lung,1.84 µM and 0.944 µM
same,TGI,NCI-H226 lung,16.2 µM and > 10 µM
same,GI50,SR leukemia,2.27 µM and 2.8 µM
same,TGI,SR leukemia,10.9 µM and > 10 µM
same,TGI,DU-145 prostate,15.4 µM and > 10 µM
same,GI50,TK-10 renal,< 0.001 µM
same,TGI,TK-10 renal,6.61 µM and 4.43 µM
same,GI50,IGROV1 ovarian,0.0855 µM and 0.0104 µM
same,TGI,IGROV1 ovarian,4.39 µM and 1.72 µM
